Reference: patent US20090030058A1, “TOSYLATE SALT OF 6- (4-BR0M0-2-CHL0R0PHENYLAMIN0) -7-FLUORO-N- (2-HYDROXYETHOXY) -3-METHYL-3H-BENZIMI DAZOLE- 5 - CARBOXAMIDE , MEK INHIBITOR USEFUL IN THE TREATMENT OF CANCER” (priority 2005, published 2009)
Entries after “also recorded” stand apart in the source; their conditions may differ. Structures can show the parent of a compound that is named as a salt.

Experiments:
[1] = Solubility in various media (amount dissolved after stirring with excess solid); assay type: physicochemical
Experimental: Due to the observation of the tosylate salt remaining as the salt form in solution, further investigations were performed to probe the solubility of the salts in various media. The amounts dissolved (mg/mL) in the various media after stirring either the Compound 1 free base or the Compound 1 tosylate salt with excess solid for 10 minutes and 60 minutes are shown in Table 4 (SIF=Simulated intestinal fluid; FaSIF=Fasted Simulated Intestinal Fluid).

[2] = Percent dissolution after 1 hour, tablet and powder form; assay type: physicochemical
Experimental: Dissolution of the free base of Compound 1 as well as the tosylate salt of Compound 1 was investigated at the 1 hour time point in both tablet form and powder form. The dissolution rate of the tosylate salt was generally much higher than that of the free base.

[3] = Intrinsic and powder dissolution rate (pH 6.5); assay type: physicochemical
Experimental: In order to investigate the effects of salts on the release rate, an intrinsic dissolution (pH 6.5) was performed.

[4] = Disproportionation study, slurry in pH 6.5 buffer, XRPD; assay type: physicochemical; conditions: for disproportionation of the salt to the free base in buffer: suspension/slurry in pH 6.5 buffer, XRPD, p-toluenesulfonate
Experimental: The characteristics of the salts in liquids were investigated by slurrying the material in a range of solvents including a buffer of pH 6.5 to simulate physiological conditions.
Compound 1 tosylate salt was slurried in pH 6.5 buffer at room temperature at a concentration of 100 mg in 2 mL. Samples were taken at 15 minute intervals up to 120 minutes.
In order to prepare the pH 6.5 slurry of Compound 1 tosylate salt, a buffer was first prepared by producing a first solution (Solution A) by adding 90.8 mg of potassium dihydrogen phosphate to a conical 100 mL flask. Deionised water was added to mark ensuring all solid had dissolved. A second solution (Solution B) was prepared by adding 118.8 mg of disodium hydrogen phosphate to a conical 100 mL flask and deionised water was added to mark ensuring all solid had dissolved. Then 64 mL of solution A was mixed with 32 mL of solution B to form a pH 6.5 buffer
The slurry was prepared by adding 100 mg of Compound 1 tosylate to a 10 mL vial and to this was added 2 mL of the pH 6.5 buffer (prepared above), a magnetic stir bar was added and vial placed on a magnetic stirrer. Small aliquots of the suspension were removed after 15 minutes, 30 minutes, 45 minutes, 60 minutes and 120 minutes and each sample was placed on a metal plate on the D8 Diffractometer and an XRPD pattern determined immediately. The results after 0, 15 and 60 minutes are shown in FIGS. 7, 8 and 9, respectively.

[5] = Solid state storage stability (disproportionation); assay type: physicochemical; conditions: 3 months storage at 40° C. and 5% relative humidity
[6] = Particle size reduction (milling, micronisation), PXRD; assay type: physicochemical; conditions: pestle and mortar 10 minutes or spiral jet mill, listed as tosylate salt, p-toluenesulfonate
Experimental: In order to investigate the potential for the materials to become amorphous during particle size reduction procedures, batches of the material were milled either by grinding the material in a pestle and mortar for 10 minutes or by micronising using conventional micronising equipment, in this case, a 2″ Spiral jet mill manufactured by Gravesend engineering. The products were subjected to PXRD as described in Example 4 above.

[7] = Dog study, plasma levels of Compound 1 after oral tablets; assay type: in vivo, Alderley Park Beagle Dogs; conditions: fasted dogs, 50 mg or 150 mg fbe
Experimental: A dog study was performed to measure plasma levels of Compound 1 in fasted dogs following oral administration of 50 mg free base equivalent (fbe) doses in tablets of the free base and the tosylate salt (form 2 of the 1:1 stoichiometric salt), and 150 mg fbe as 3×50 mg tablets of the tosylate salt.
Tablets of Compound 1 were manufactured using a standard direct compression process. Three batches were made containing Compound 1 free base or Compound 1 tosylate as the active pharmaceutical ingredient (API). The generic formulation contained API (12.5% w/w), fast flo lactose (72.0% w/w), Avicel PH102 (10.0% w/w), AcDiSol (4.0% w/w), sodium lauryl sulfate (0.5% w/w) and magnesium stearate (1.0% w/w). The required quantity of each formulation component, excluding magnesium stearate, was weighed and charged to a mixing vessel. The powders were then mixed for 30 minutes using a tumble blender. The powder mix was then sieved through a 425 μm sieve before being mixed for a further 15 minutes using the tumble blender. […] The required quantity of powder mix for each tablet was weighed individually and charged to the die before being compressed manually using a hand-operated press. […]
Dogs were fed about 400 g of Harlan Teklad 2021 each day and allowed water ad libitum. […] Plasma (50 mcL) was analysed for Compound 1 concentration.

[8] = test system: constitutively active MEK1 (2-393); assay: MEK1 kinase assay (33P incorporation onto ERK2); assay type: biochemical
Experimental: N-terminal 6 His-tagged, constitutively active MEK1 (2-393) is expressed in E. coli and protein is purified by conventional methods (Ahn et al., Science 1994, 265, 966-970). The activity of MEK1 is assessed by measuring the incorporation of γ-^33P-phosphate from γ-^33P-ATP onto N-terminal His tagged ERK2, which is expressed in E. coli and is purified by conventional methods, in the presence of MEK1. The assay is carried out in 96-well polypropylene plate. The incubation mixture (100 μL) comprises of 25 mM Hepes, pH 7.4, 10 mM MgCl2, 5 mM β-glycerolphosphate, 100 μM sodium orthovanadate, 5 mM DTT, 5 nM MEK1, and 1 μM ERK2. Inhibitors are suspended in DMSO, and all reactions, including controls are performed at a final concentration of 1% DMSO. Reactions are initiated by the addition of 10 μM ATP (with 0.5 μCi γ-^33P-ATP/well) and incubated at ambient temperature for 45 minutes. Equal volume of 25% TCA is added to stop the reaction and precipitate the proteins. Precipitated proteins are trapped onto glass fiber B filterplates, and excess labeled ATP washed off using a Tomtec MACH III harvestor. Plates are allowed to air-dry prior to adding 30 μL/well of Packard Microscint 20, and plates are counted using a Packard TopCount.

[9] = Relative stability of polymorphs; assay type: physicochemical; conditions: 1:1 anhydrous salt

Cn1cnc2c(F)c(Nc3ccc(Br)cc3Cl)c(C(=O)NOCCO)cc21 [Compound 1 tosylate, 6-(4-bromo-2-chloro-phenylamino)-7-fluoro-3-methyl-3H-benzoimidazole-5-carboxylic acid (2-hydroxy-ethoxy)-amide p-toluenesulfonate]
amount dissolved ([1]; FaSSIF, 10 min, p-toluenesulfonate): 0.19 mg/mL | amount dissolved ([1]; FaSSIF, 60 min, p-toluenesulfonate): 0.04 mg/mL | amount dissolved ([1]; H2O, 10 min, p-toluenesulfonate): 0.058 mg/mL | amount dissolved ([1]; SIF pH 6.5, 10 min, p-toluenesulfonate): 0.041 mg/mL | amount dissolved ([1]; SIF pH 6.5, 60 min, p-toluenesulfonate): 0.020 mg/mL | amount dissolved ([1]; Sorenson's buffer, 10 min, p-toluenesulfonate): 0.019 mg/mL | amount dissolved ([1]; Sorenson's buffer, 60 min, p-toluenesulfonate): 0.007 mg/mL | amount dissolved ([1]; pH 1.2, 10 min, p-toluenesulfonate): 0.41 mg/mL | amount dissolved ([1]; pH 1.2, 60 min, p-toluenesulfonate): 0.19 mg/mL | percent dissolution after 1 hour ([2]; FaSSIF, 50 mg (fbe) tablets, p-toluenesulfonate): 23.05% | percent dissolution after 1 hour ([2]; FaSSIF, powder, p-toluenesulfonate): 31.48% | percent dissolution after 1 hour ([2]; SIF pH 6.5, 50 mg (fbe) tablets, p-toluenesulfonate): 6.66% | percent dissolution after 1 hour ([2]; SIF pH 6.5, powder, p-toluenesulfonate): 5.16% | intrinsic dissolution rate relative to the free base [3]: comparable to that of the free base | powder dissolution rate relative to the free base [3]: 60 times | time the salt remains present in the slurry ([4]; pH 6.5 buffer, room temperature, 100 mg in 2 mL): up to 75 minutes | disproportionation of the salt to the free base in buffer ([4]; listed as Compound 1 tosylate salt): a small amount of free base is produced after 15 minutes | disproportionation of the salt to the free base in buffer [4]: little disproportionation | disproportionation in the solid state [5]: no disproportionation | resistance to becoming amorphous on milling and micronisation [6]: highly resistant to becoming amorphous; also recorded: unique resistance to becoming amorphous | exposure (plasma Compound 1) versus free base [7]: substantial increase in exposure

Cn1cnc2c(F)c(Nc3ccc(Br)cc3Cl)c(C(=O)NOCCO)cc21 [Compound 1, 6-(4-bromo-2-chloro-phenylamino)-7-fluoro-3-methyl-3H-benzoimidazole-5-carboxylic acid (2-hydroxy-ethoxy)-amide]
activity in MEK1 assay [8]: activity | amount dissolved ([1]; FaSSIF, 10 min, listed as Compound 1 free base): 0.01 mg/mL | amount dissolved ([1]; FaSSIF, 60 min, listed as Compound 1 free base): 0.01 mg/mL | amount dissolved ([1]; H2O, 10 min, listed as Compound 1 free base): 0.004 mg/mL | amount dissolved ([1]; SIF pH 6.5, 10 min, listed as Compound 1 free base): 0.004 mg/mL | amount dissolved ([1]; SIF pH 6.5, 60 min, listed as Compound 1 free base): 0.004 mg/mL | amount dissolved ([1]; Sorenson's buffer, 10 min, listed as Compound 1 free base): 0.004 mg/mL | amount dissolved ([1]; Sorenson's buffer, 60 min, listed as Compound 1 free base): 0.004 mg/mL | amount dissolved ([1]; pH 1.2, 10 min, listed as Compound 1 free base): 0.14 mg/mL | amount dissolved ([1]; pH 1.2, 60 min, listed as Compound 1 free base): 0.13 mg/mL | percent dissolution after 1 hour ([2]; FaSSIF, 50 mg (fbe) tablets, listed as Compound 1 Free base): 4.54% | percent dissolution after 1 hour ([2]; FaSSIF, powder, listed as Compound 1 Free base): 4.49% | percent dissolution after 1 hour ([2]; SIF pH 6.5, 50 mg (fbe) tablets, listed as Compound 1 Free base): 2.61% | percent dissolution after 1 hour ([2]; SIF pH 6.5, powder, listed as Compound 1 Free base): 2.36%

Cn1cnc2c(F)c(Nc3ccc(Br)cc3Cl)c(C(=O)NOCCO)cc21 [Form 2, 6-(4-bromo-2-chloro-phenylamino)-7-fluoro-3-methyl-3H-benzoimidazole-5-carboxylic acid (2-hydroxy-ethoxy)-amide p-toluenesulfonate]
disproportionation of the salt to the free base in buffer [4]: some kinetic resistance to disproportionate | stability relative to the other polymorph [9]: more stable than the salt in the form of the polymorph Form 1
